Results: patent publication US20050085651A1, “Crystal of N-long-chain acylglycine salt, method of production thereof, and detergent composition using said crystal” (AJINOMOTO CO., INC., priority 2003, published 2005)

What was measured:
Type in all cases: physicochemical
[1] = Water dispersibility (lumping) evaluated by five panelists; settings: second Ex. 1 powder, average particle size 20 μm
Experimental: (§1) The milled products of the crystals obtained in Examples 1-3 and the powder obtained in Comparative Example 2 were examined for dusting (scattering) and water solubility and dispersibility. Also, these powders were sieved and their average particle diameters were determined.
Dispersibility was evaluated by five panelists. A 1-gram powder sample was placed in the palm of each panelist and rubbed and examined for lumping in the presence of a small amount of water. Findings were evaluated using a three-grade rating system: good (O) for no lumping, acceptable (Δ) for a small amount of lumping, and poor (x) for a large amount of lumping.

[2] = Water solubility: time taken to dissolve powder in water; settings: second Ex. 1 powder, average particle size 20 μm; 1.5 g in 100 g of water at 30° C.
Experimental: as §1
In this test, solubility is defined as time taken to dissolve 1.5 g of powder in 100 g of water at 30° C.

[3] = Scattering (dusting) test of dropped powder; settings: second Ex. 1 powder, average particle size 20 μm; relative ratio to Comparative Example 2
Experimental: as §1
Scattering was quantified as described below. A 5 g powder sample was dropped by a distance of 1.2 m from the top of a cylinder (diameter: 12.5 cm). Two seconds after the drop, the scattered powder was sucked from the inlet in the base of the cylinder for 6 seconds using a blower; the powder caught by filter paper (GB100R, manufactured by Advantest Corporation) on the blower surface was weighed. This weight was expressed as a relative ratio to the powder weight in Comparative Example 2.

[4] = Average particle diameter by sieving
Experimental: Using the GILSONIC AUTOSIEVER (GA-6, manufactured by GILSON), an about 2 g coarsely milled sample (pass through 425μ mesh) was sieved for 5 minutes and the resulting particles were classified by size; the average particle diameter was calculated from the weights of particles in respective classes.
as §1

[5] = milled product of crystal (Com. Ex. 2: spray-dried powder), sieved

Dispersibility [1] | Dissolution rate [2] | Scattering [3] | Average particle size [4, 5] | Average particle size ([4]; second Ex. 1 powder (finer)) | Structure (SMILES)
◯ | 341 s | 0.87 | 85 μm | 20 μm | CCCCCCCCCCCC(=O)NCC(=O)[O-].[Na+] [Ex. 1, N-lauroylglycine Sodium Salt]
– | – | – | 87 μm | – | CCCCCCCCCCCCCC(=O)NCC(=O)[O-].[Na+] [Ex. 3, N-myristoylglycine Sodium Salt]
